From US11117883B2 (Ariad Pharmaceuticals, Inc., priority 2016, dated 2021)

Legend:
[1] = system: gastrointestinal stromal tumors (GIST); conditions: third line therapy; cited from earlier work
[2] = target: T1, BAF3 FL KIT EX11DEL/T6701 (Homo sapiens, UniProt P10721, T670I, cells depend on it, form not given); experiment: c-Kit assay: Ba/F3 KIT mutant viability (Cell Titer-Glo, 72 hours); type: cell-based; conditions: EX11DEL/T6701, viability after 72 hours
T1 construct: "BAF3 FL KIT EX11DEL/ T6701"
T1 sequence (P10721 with tags, fused parts or gaps DEL557-558/T670I, form open): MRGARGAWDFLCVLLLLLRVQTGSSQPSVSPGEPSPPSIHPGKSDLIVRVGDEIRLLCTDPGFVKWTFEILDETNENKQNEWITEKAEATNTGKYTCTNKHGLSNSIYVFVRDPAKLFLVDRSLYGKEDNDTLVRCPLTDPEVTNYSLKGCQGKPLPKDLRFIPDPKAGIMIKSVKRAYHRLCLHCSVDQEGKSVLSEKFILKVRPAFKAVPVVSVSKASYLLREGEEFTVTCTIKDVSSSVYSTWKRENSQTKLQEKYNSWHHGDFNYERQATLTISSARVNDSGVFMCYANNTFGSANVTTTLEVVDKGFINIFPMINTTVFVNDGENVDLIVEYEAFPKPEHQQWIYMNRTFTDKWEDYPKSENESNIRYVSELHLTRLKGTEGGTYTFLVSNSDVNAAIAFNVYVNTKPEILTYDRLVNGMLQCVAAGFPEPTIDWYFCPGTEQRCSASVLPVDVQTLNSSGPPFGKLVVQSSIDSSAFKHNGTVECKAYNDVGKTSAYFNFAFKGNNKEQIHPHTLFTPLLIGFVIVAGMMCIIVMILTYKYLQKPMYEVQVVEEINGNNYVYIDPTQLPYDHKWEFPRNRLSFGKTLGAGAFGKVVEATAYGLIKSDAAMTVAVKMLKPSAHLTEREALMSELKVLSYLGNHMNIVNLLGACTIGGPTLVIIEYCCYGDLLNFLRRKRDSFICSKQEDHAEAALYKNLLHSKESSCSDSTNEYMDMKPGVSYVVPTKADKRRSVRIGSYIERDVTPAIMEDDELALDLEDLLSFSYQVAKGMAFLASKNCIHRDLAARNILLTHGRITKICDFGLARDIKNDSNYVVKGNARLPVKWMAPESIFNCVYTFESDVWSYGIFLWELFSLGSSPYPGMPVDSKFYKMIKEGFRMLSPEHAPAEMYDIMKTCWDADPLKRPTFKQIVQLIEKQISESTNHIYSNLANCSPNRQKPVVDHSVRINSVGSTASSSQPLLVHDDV
Protocol: (§1) KIT cDNAs were synthesized by GenScript and cloned into the pLVX-IRES-Puro vector (Clontech). Viral particles were produced by transfecting pLVX-IRES-puro vectors containing KIT mutant genes into HEK293 cells (Invitrogen) using the Trans-Lentiviral ORF Packaging Kit (Thermo Scientific). 48 hours post-transfection, virus-containing supernatants were harvested and incubated for another 48-72 hours with parental Ba/F3 cells (DSMZ) in the presence of 10 ng/mL […] (R&D Systems). Transduced Ba/F3 cells were then selected by IL-3 withdrawal and puromycin (0.5-1 μg/mL, Invitrogen).
(§2) Cell lines (i.e., EX11DEL, EX11DEL/D816H, EX11DEL/T670I, and EX11DEL/V654A) were plated into 384 well plates using RPMI 1640 supplemented with 10% FBS at densities that produced linear growth and incubated at 37° C. in 5% (v/v) CO2. Cells were treated with eight concentrations of compound over a 4-fold dilution (10 μM to 0.61 nM) and viability was assessed using Cell Titer-Glo assay (Promega) after 72 hours. Data were plotted as percent viability relative to vehicle-treated cells. Dose-responses curves were generated and used to calculate IC50 values.

[3] = target: T2, BAF3 FL KIT EX11DEL/D816H (Homo sapiens, UniProt P10721, D816H, cells depend on it, form not given); experiment: as above; type: cell-based; conditions: viability after 72 hours
T2 construct: "BAF3 FL KIT EX11DEL/ D816H"
T2 sequence (P10721 with tags, fused parts or gaps DEL557-558/D816H, form open): as the sequence (P10721 with tags, fused parts or gaps DEL557-558/T670I, form open) above, with I668T, D814H counted along it
Protocol: as §1, §2

[4] = target: T3, BAF3 FL KIT EX11DEL/V654A (Homo sapiens, UniProt P10721, V654A, cells depend on it, form not given); experiment: as above; type: cell-based; conditions: viability after 72 hours
T3 construct: "BAF3 FL KIT EX11DEL/ V654A"
T3 sequence (P10721 with tags, fused parts or gaps DEL557-558/V654A, form open): as the sequence (P10721 with tags, fused parts or gaps DEL557-558/T670I, form open) above, with V652A, I668T counted along it
Protocol: as §1, §2

[5] = target: T4, BAF3 FL KIT EX11DEL (Homo sapiens, UniProt P10721, cells depend on it, form not given); experiment: as above; type: cell-based; conditions: viability after 72 hours
T4 construct: "BAF3 FL KIT EX11DEL"
T4 sequence (P10721 with tags, fused parts or gaps DEL557-558): as the sequence (P10721 with tags, fused parts or gaps DEL557-558/T670I, form open) above, with I668T counted along it
Protocol: as §1, §2

Structure (SMILES)	ORR [1] [%]	median PFS [1] [months]	GI50 [2] [µM]	GI50 [3] [µM]	GI50 [4] [µM]	GI50 [5] [µM]
CNC(=O)c1cc(Oc2ccc(NC(=O)Nc3ccc(Cl)c(C(F)(F)F)c3)c(F)c2)ccn1 [Regorafenib]	4.5	4.8	–	–	–	–
Cc1ccc(C(=O)Nc2ccc(CN3CCCC3)c(C(F)(F)F)c2)cc1C#Cc1ccc2c(c1)ncn2-c1cnn(C)c1 [Compound I-29, 4-methyl-3-((1-(1-methyl-1H-pyrazol-4-yl)-1H-benzo[d]imidazol-5-yl)ethynyl)-N-(4-(pyrrolidin-1-ylmethyl)-3-(trifluoromethyl)phenyl)benzamide]	–	–	0.01 to 0.05	0.01 to 0.05	0.05 to 0.1	0.01 to 0.05
Cc1ccc(NC(=O)c2ccc(CN3CCN(C)CC3)c(C(F)(F)F)c2)cc1C#Cc1ccc2c(c1)ncn2C [Compound I-18, N-(4-methyl-3-((1-methyl-1H-benzo[d]imidazol-5-yl)ethynyl)phenyl)-4-((4-methylpiperazin-1-yl)methyl)-3-(trifluoromethyl)benzamide]	–	–	0.1 to 10	0.1 to 10	0.1 to 10	0.1 to 10
Cn1cc(-n2cnc3cc(C#Cc4cccc(C(=O)Nc5cc(C(F)(F)F)ccn5)c4)ccc32)cn1 [Compound I-50, 3-((1-(1-methyl-1H-pyrazol-4-yl)-1H-benzo[d]imidazol-5-yl)ethynyl)-N-(4-(trifluoromethyl)pyridin-2-yl)benzamide]	–	–	< 0.01	0.1 to 10	0.05 to 0.1	< 0.01
Cc1ccc(NC(=O)c2ccc(CN3CCN(C)CC3)c(C(F)(F)F)c2)cc1C#Cc1ccc2c(c1)ncn2-c1cnn(C)c1 [Compound I-46, N-(4-methyl-3-((1-(1-methyl-1H-pyrazol-4-yl)-1H-benzo[d]imidazol-5-yl)ethynyl)phenyl)-4-((4-methylpiperazin-1-yl)methyl)-3-(trifluoromethyl)benzamide]	–	–	0.05 to 0.1	0.1 to 10	0.1 to 10	0.01 to 0.05
Cc1ccc(C(=O)Nc2ccc(C#N)c(C(F)(F)F)c2)cc1C#Cc1ccc2c(c1)ncn2-c1ccn(C)n1 [Compound I-37, N-(4-cyano-3-(trifluoromethyl)phenyl)-4-methyl-3-((1-(1-methyl-1H-pyrazol-3-yl)-1H-benzo[d]imidazol-5-yl)ethynyl)benzamide]	–	–	0.01 to 0.05	0.01 to 0.05	0.05 to 0.1	< 0.01
Cc1ccc(NC(=O)c2cc(C(F)(F)F)ccn2)cc1C#Cc1ccc2c(c1)ncn2-c1cn(C)nn1 [Compound I-36, N-(4-methyl-3-((1-(1-methyl-1H-1,2,3-triazol-4-yl)-1H-benzo[d]imidazol-5-yl)ethynyl)phenyl)-4-(trifluoromethyl)picolinamide]	–	–	0.01 to 0.05	0.01 to 0.05	0.01 to 0.05	< 0.01
Cc1ccc(C(=O)Nc2cc(C(F)(F)F)ccn2)cc1C#Cc1ccc2c(c1)ncn2-c1cn[nH]c1 [Compound I-35, 3-((1-(1H-pyrazol-4-yl)-1H-benzo[d]imidazol-5-yl)ethynyl)-4-methyl-N-(4-(trifluoromethyl)pyridin-2-yl)benzamide]	–	–	0.01 to 0.05	0.01 to 0.05	0.01 to 0.05	< 0.01
